In assay [1] the test system is RAW264.7. The assay can be described thus: Antiinflammatory activity in mouse RAW264.7 cells assessed as inhibition LPS-induced IL6 secretion at 1 uM after 12 hrs. It is filed as functional. Particulars: for inhibition at 1 µM: RAW264.7, 12 h.
In assay [2] the test system is MCF7. The assay can be described thus: Cytotoxicity against human MCF7 cells by MTT assay. Format: functional, cell-based. For orientation: Formazan colour is commonly taken as a measure of viable cells.
Assay [3] deals with RAW264.7. The assay can be described thus: Antiinflammatory activity in mouse RAW264.7 cells assessed as inhibition LPS-induced TNFalpha secretion at 0.01 uM after 12 hrs. It is filed as functional. Particulars: RAW264.7, 12 h.
For assay [4], the system named is HeLa. Nature of the assay: Cytotoxicity against human HeLa cells by MTT assay. It is filed as functional, cell-based.
The subject of assay [5] is SK-MEL-1. The assay can be described thus: Cytotoxicity against human SK-MEL-1 cells by MTT assay. Format: functional, cell-based.
In assay [6] the test system is RAW264.7. Nature of the assay: Antiinflammatory activity in mouse RAW264.7 cells assessed as inhibition LPS-induced TNFalpha secretion at 1 uM after 12 hrs. Particulars: RAW264.7, 12 h. Format: functional.

pIC50: −log10 of the molar value. Activity calls are given as the source filed them. The calls are words filed in the database; no cut-off is given here.

On to `COc1ccc(/C=C/C(=O)c2ccc(OC)cc2O)cc1`, for which the result in assay [1] was inactive. Also, the pIC50 in assay [2] was 4.34; in assay [4], below 4.30; in assay [5], 4.38. In assay [3], the inhibition at 0.01 µM worked out at 20.9%.

Take `CC(C)=CCC[C@@H](C)[C@H]1CC[C@@]2(C)[C@H]3CC[C@H]4C(C)(C)C(=O)CC[C@@]45C[C@@]35CC[C@]12C`: the result in assay [1] was inactive. The pIC50 in assay [2], in assay [4] and in assay [5] was below 4.30 each time. Besides, in assay [6], the inhibition at 1 µM was found to be 15.2%.

In the case of `CC[C@H](CC[C@@H](C)[C@H]1CC[C@H]2[C@@H]3CC=C4C[C@@H](O)CC[C@]4(C)[C@H]3CC[C@]12C)C(C)C` [BETA-SITOSTEROL], the inhibition at 1 µM in assay [1] was 54.5%. The negative-log IC50 (pIC50) in assay [2] is 4.38; in assay [4], 4.34; in assay [5], below 4.30. Besides, the inhibition at 0.01 µM in assay [3] is 20.9%.

As for `C=C(C)C(=O)CC[C@@H](C)[C@H]1CC[C@@]2(C)[C@H]3CC[C@H]4C(C)(C)C(=O)CC[C@@]45C[C@@]35CC[C@]12C`, the outcome in assay [1] was inactive. Further, the negative-log IC50 (pIC50) in assay [2] was 4.51; in assay [4], 4.60; in assay [5], 4.80. The inhibition at 0.01 µM in assay [3] turned out to be 20.9%.

In the case of `C=C(C)C(O)CC[C@@H](C)[C@H]1CC[C@@]2(C)[C@H]3CC[C@H]4C(C)(C)C(=O)CC[C@@]45C[C@@]35CC[C@]12C` (stereo not given in full), the inhibition at 1 µM in assay [1] was 54.6%. In addition, the pIC50 in assay [2], in assay [4] and in assay [5] was below 4.30 each time. Also, the inhibition at 0.01 µM in assay [3] was 20.9%.

Regarding `C=C(C)[C@@H]1CC[C@]2(C)CC[C@]3(C)[C@H](CC[C@@H]4[C@@]5(C)CC[C@H](O)C(C)(C)[C@@H]5CC[C@]43C)[C@@H]12` [LUPEOL], the negative logarithm of the IC50 (pIC50) in assay [2], in assay [4] and in assay [5] was below 4.30 each time.

`CC1(C)CC[C@]2(C)CC[C@]3(C)C(=CC[C@@H]4[C@@]5(C)CC[C@H](O)C(C)(C)[C@@H]5CC[C@]43C)[C@@H]2C1` [beta-AMYRIN]: the pIC50 in assay [2], in assay [4] and in assay [5] was below 4.30 each time.

Regarding `CC1(C)CC[C@]2(C)CC[C@]3(C)[C@H]4CC=C5[C@@H](CC[C@H](O)C5(C)C)[C@]4(C)CC[C@@]3(C)[C@@H]2C1` [GLUTINOL], the outcome in assay [1] was inactive. The pIC50 in assay [2], in assay [4] and in assay [5] was below 4.30 in each case. Further, the inhibition at 0.01 µM in assay [3] is 20.9%.

Take `CC(=O)O[C@H]1CC[C@]2(C)[C@H]3CC=C4[C@@H]5CC(C)(C)CC[C@]5(C)CC[C@@]4(C)[C@]3(C)CC[C@H]2C1(C)C` [beta-AMYRIN ACETATE]: in assay [1], the result was inactive. Moreover, the pIC50 was 4.57 in assay [2], below 4.30 in assay [4] and below 4.30 in assay [5]. In assay [3], the inhibition at 0.01 µM came out at 20.9%.

In the case of `CC(C)=CCC[C@@H](C)[C@H]1CC[C@@]2(C)[C@@H]3CC=C4[C@@H](CC[C@H](O)C4(C)C)[C@]3(C)CC[C@]12C`, the negative logarithm of the IC50 (pIC50) in assay [2], in assay [4] and in assay [5] was below 4.30 each time. Also, the inhibition at 1 µM in assay [6] is 80.9%.

Broadly, the pIC50 is the negative decadic logarithm of the IC50, by convention in mol/L. Usually inhibition stands for the share of the control response that was lost under treatment.

The record behind these values is ChEMBL document CHEMBL1136946, “The regulation of inflammatory cytokine secretion in macrophage cell line by the chemical constituents of Rhus sylvestris” (Bioorg Med Chem Lett, 2009).
